The text below walks through data of ChEMBL document CHEMBL4011610, “Design, synthesis and optimization of 7-substituted-pyrazolo[4,3-b]pyridine ALK5 (activin receptor-like kinase 5) inhibitors” (Bioorg Med Chem Lett, 2017).

Data set [1] deals with T1, TGF-beta receptor type-1 (Homo sapiens, UniProt P36897).
T1 sequence (P36897 whole entry): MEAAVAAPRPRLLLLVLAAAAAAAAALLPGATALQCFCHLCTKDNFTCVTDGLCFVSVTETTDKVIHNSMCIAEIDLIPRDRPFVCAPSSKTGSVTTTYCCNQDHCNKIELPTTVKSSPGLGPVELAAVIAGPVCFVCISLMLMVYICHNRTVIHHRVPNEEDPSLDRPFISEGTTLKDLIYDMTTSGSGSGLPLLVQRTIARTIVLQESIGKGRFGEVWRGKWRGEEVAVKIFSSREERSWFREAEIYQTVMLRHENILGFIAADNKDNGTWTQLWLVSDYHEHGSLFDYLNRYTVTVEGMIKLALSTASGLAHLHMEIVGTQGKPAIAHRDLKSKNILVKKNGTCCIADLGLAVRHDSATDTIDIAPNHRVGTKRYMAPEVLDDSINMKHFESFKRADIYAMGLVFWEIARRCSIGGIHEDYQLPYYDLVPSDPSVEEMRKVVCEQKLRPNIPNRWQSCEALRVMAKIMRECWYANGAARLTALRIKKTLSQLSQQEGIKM
The data set can be described thus: Inhibition of ALK5 (unknown origin) expressed in SBE-bla HEK293T cells assessed as decrease in TGFbeta1-induced Smad2/3 phosphorylation by beta lactamase reporter gene assay. It counts as cell-based. For orientation: A reporter such as luciferase makes a cellular process visible.

Data set [2] is described as follows: Hepatic extraction ratio in human. Type of data set: ADME. As to conditions: read-out: ERH.
Data set [3] can be described thus: Hepatic extraction ratio in rat. It counts as ADME. Particulars: read-out: ERH.
In data set [4] the target is T1, TGF-beta receptor type-1. The data set can be described thus: Inhibition of ALK5 in human Calu6 cells assessed as reduction in Smad2/3 phosphorylation. Type of data set: cell-based.
Data set [5] addresses T1, TGF-beta receptor type-1. The data set can be described thus: Inhibition of recombinant N-terminal GST tagged human ALK5 (200 to 503 residues) expressed in baculovirus expression system using FAM-NH2-KVLTQMGSPSIRCSS[PO4]VS peptide as substrate after 90 mins by LanthaScreen TR-FRET assay. Background: TR-FRET usually uses a lanthanide donor and a delayed reading to cut background.

The target of data set [6] is hERG (KCNH2) (Homo sapiens, UniProt Q12809). The data set can be described thus: Inhibition of human ERG expressed in CHOK1 cells at 10 uM by automated whole cell patch clamp Qpatch method relative to control. It counts as cell-based. As to conditions: CHO-K1 cells expressing human ERG. (In patch-clamp work, channel activity is measured electrically.)
The nature of data set [7]: Oral bioavailability in rat. Type of data set: ADME, organism-based. As to conditions: in vivo.
The target in data set [8] is Cytochrome P450 3A4 (Homo sapiens, UniProt P08684). As to the kind of experiment: Inhibition of CYP3A4 (unknown origin). Type of data set: ADME.
A short description of data set [9]: Clearance in rat. It counts as ADME. As to conditions: in vivo.
Data set [10] has as its target T2, Cytochrome P450 2C8 (Homo sapiens, UniProt P10632).
T2 sequence (P10632 whole entry): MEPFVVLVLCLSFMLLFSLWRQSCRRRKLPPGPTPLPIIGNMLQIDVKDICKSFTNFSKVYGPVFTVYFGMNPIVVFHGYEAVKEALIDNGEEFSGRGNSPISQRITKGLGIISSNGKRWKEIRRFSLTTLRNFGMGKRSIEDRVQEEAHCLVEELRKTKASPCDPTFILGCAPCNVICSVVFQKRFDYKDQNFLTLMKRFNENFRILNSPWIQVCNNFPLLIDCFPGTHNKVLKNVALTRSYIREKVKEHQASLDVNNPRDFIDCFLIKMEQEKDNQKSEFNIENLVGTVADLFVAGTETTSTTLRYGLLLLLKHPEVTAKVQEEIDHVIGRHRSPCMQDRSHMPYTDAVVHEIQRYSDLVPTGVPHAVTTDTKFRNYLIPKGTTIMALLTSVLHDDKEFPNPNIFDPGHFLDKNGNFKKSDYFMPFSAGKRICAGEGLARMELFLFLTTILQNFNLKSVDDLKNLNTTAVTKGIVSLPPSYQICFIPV
As to the kind of experiment: Inhibition of CYP2C8 (unknown origin). It counts as ADME.

The nature of data set [11]: Clearance in human microsomes. It counts as ADME, Microsome.
The nature of data set [12]: Clearance in rat microsomes. It counts as ADME, Microsome.

Sequence of Cytochrome P450 3A4 (P08684 whole entry): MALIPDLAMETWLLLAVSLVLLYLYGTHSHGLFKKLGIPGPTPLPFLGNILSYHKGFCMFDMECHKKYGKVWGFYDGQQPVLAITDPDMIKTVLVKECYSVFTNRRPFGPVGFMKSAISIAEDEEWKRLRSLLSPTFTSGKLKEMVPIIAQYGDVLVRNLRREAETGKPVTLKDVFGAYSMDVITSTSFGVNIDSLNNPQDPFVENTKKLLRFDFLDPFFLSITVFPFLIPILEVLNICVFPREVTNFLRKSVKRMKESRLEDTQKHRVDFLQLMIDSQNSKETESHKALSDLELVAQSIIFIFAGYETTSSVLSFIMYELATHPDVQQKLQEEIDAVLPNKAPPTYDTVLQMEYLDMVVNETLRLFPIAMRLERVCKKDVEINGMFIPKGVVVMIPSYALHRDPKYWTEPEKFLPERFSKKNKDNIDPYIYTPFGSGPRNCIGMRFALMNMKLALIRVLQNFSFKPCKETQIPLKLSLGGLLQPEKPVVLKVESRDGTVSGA
Sequence of hERG (KCNH2) (Q12809 whole entry): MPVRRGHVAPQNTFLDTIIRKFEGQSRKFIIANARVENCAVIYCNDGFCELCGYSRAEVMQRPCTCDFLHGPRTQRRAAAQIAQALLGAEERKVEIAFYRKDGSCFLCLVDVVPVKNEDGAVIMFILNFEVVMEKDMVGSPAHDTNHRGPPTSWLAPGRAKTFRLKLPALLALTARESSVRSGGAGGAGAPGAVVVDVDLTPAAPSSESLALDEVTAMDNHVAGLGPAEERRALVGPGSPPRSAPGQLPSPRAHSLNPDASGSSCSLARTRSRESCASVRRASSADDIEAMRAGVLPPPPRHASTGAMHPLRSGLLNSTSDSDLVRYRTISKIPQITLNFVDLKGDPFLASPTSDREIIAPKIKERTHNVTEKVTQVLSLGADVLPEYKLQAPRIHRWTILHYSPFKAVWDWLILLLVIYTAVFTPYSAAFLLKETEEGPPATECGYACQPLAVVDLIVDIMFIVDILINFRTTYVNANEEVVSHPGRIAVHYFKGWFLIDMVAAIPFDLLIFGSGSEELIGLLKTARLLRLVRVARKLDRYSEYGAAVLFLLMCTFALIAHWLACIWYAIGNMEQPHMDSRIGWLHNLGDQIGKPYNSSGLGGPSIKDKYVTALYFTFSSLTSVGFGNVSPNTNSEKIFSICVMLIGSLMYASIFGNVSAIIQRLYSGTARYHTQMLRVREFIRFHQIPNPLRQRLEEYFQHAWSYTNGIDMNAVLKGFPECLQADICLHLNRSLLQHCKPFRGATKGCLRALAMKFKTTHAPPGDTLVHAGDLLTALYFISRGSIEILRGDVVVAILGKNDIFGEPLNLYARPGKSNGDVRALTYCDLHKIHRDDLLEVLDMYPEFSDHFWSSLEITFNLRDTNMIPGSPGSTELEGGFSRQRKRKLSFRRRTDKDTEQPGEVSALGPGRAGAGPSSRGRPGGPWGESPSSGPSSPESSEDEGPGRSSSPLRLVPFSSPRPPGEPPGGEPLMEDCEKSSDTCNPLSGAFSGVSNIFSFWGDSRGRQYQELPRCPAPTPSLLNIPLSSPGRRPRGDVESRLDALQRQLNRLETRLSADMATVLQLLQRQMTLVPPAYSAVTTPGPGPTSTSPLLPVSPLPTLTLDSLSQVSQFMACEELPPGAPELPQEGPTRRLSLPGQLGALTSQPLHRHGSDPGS

As a reminder, the EC50 is the midpoint of the concentration-response curve. One may read the IC50 as the concentration needed to halve the response being measured. For `CNC(=O)n1ncc2nccc(Nc3ccnc(-c4cc(F)ccc4F)c3)c21`, the results for the EC50 in [1] and in data set [4] were 20 nM and 126 nM, respectively. Further, the figures for the hepatic extraction ratio in data set [2] and in [3] were 0.55 and 0.27, respectively. For the same compound, the IC50 in [5] is 2.51 nM.
For `CNC(=O)n1ncc2nccc(Nc3ccnc(-c4cc(Cl)ccc4F)c3)c21`, in that order: 25.1 nM, 63.1 nM, 0.57, 0.31 and 3.16 nM.
One may read the inhibition as how much of the control response was suppressed. A high value points to a response far below the control. Usually bioavailability stands for the share of a dose that reaches the circulation, judged against a reference dose that is usually intravenous. A higher bioavailability goes with good availability. For the compound `Cc1ccc(F)c(-c2cc(Nc3ccnc4cnn(C[C@@H](C)O)c34)c(C)cn2)n1`, the EC50 in [1] was 100 nM; in [4], 501 nM. Besides, the hepatic extraction ratio in [2] and in [3] was 0.3 throughout. The inhibition at 10 µM in data set [6] worked out at 42%. Also, in data set [5], the IC50 was 7.94 nM. This compound yielded a bioavailability in data set [7] of 38%.
As to `CCc1cnc(-c2cc(Cl)ccc2F)cc1Nc1ccnc2cccc(OC)c12`, the IC50 in data set [5] is 25.1 nM.
Consider `NC(=O)Cn1cc2nccc(Nc3ccnc(-c4cc(Cl)ccc4F)c3)c2n1`, for which, in data set [1], the EC50 is 100 nM. The figures for the hepatic extraction ratio in data set [2] and in data set [3] were 0.52 and 0.54, respectively. Moreover, the inhibition at 10 µM in data set [6] fell in the range of 41 to 59%. Further, the IC50 was 12.6 nM in [5] and 12600 nM in data set [8].
`Cc1cnc(-c2cc(Cl)ccc2F)cc1Nc1ccnc2cn(CC(N)=O)nc12`: the EC50 in data set [1] was 12.6 nM; in data set [4] it was 31.6 nM. For the same compound, the hepatic extraction ratio is 0.46 in data set [2] and 0.56 in data set [3]. In data set [6], this compound had an inhibition at 10 µM of 41 to 59%. In data set [8], this compound gave an IC50 of more than 50100 nM.
On to `COc1cccc2nccc(Nc3ccnc(-c4cc(C)ccc4F)c3)c12`, for which the IC50 in [5] is 25.1 nM.
In general, clearance refers to a measure of how efficiently the substance is removed, as volume per time. Take `Cc1cnc(-c2cc(Cl)ccc2F)cc1Nc1ccnc2cnn(CC(N)=O)c12`: the EC50 was 20 nM in data set [1] and 31.6 nM in data set [4]. For the same compound, the hepatic extraction ratio was found to be 0.54 in [2] and 0.44 in data set [3]. In data set [6], this compound registered an inhibition at 10 µM of 41 to 59%. In [9], this compound had a clearance of 42 mL/min/kg. Moreover, in [8], the IC50 is 12600 nM. In data set [7], this compound returned a bioavailability of 71%.
Take `Fc1ccc(Cl)cc1-c1cc(Nc2ccnc3cn[nH]c23)ccn1`: the EC50 in data set [1] is 50.1 nM. For the same compound, in data set [5], the IC50 is 6.31 nM.
Regarding `Cc1cccc(-c2cc(Nc3ccnc4cn[nH]c34)c(C)cn2)n1`, the EC50 in data set [1] is 31.6 nM; in [4], 200 nM. Moreover, in [5], the IC50 is 5.01 nM.
Consider `CCNC(=O)n1ncc2nccc(Nc3ccnc(-c4cc(F)ccc4F)c3)c21`, for which the results for the EC50 in data set [1] and in [4] were 31.6 nM and 158 nM, respectively. In addition, the hepatic extraction ratio turned out to be 0.53 in [2] and 0.29 in data set [3].
For the compound `COc1cccc2nccc(Nc3ccnc(-c4cc(Cl)ccc4F)c3)c12`, in [5], the IC50 was 20 nM.
On to `COc1cccc2nccc(Nc3cc(-c4cccc(Cl)c4)ncc3C)c12`, for which the IC50 in data set [5] was 31.6 nM.
`NC(=O)Cn1cc2nccc(Nc3ccnc(-c4cc(F)ccc4F)c3)c2n1`: the figures for the EC50 in [1] and in [4] were 251 nM and 1580 nM, respectively. Also, the hepatic extraction ratio in data set [2] was determined as 0.44; in data set [3], 0.42.
As for `CCn1cc2nccc(Nc3cc(-c4cc(C)ccc4F)ncc3C)c2n1`, the figures for the EC50 in data set [1] and in [4] were 15.8 nM and 158 nM, respectively. Moreover, in data set [5], the IC50 is 10 nM.
Regarding `Cc1cnc(-c2cc(Cl)ccc2F)cc1Nc1ccnc2cn[nH]c12`, the EC50 in [1] was 31.6 nM. In addition, the hepatic extraction ratio in data set [2] turned out to be 0.57; in data set [3], 0.75. In addition, the IC50 was 398 nM in data set [10], 15.8 nM in [5] and 3160 nM in data set [8].
`Cc1cnc(-c2cc(F)ccc2F)cc1Nc1ccnc2cnn(CC(C)O)c12` (centres undefined): the EC50 is 7.94 nM in [1] and 20 nM in [4]. Further, the hepatic extraction ratio in data set [2] is 0.64; in [3] it was 0.54. In data set [5], the IC50 was 3.16 nM.
On to `COc1cccc2nccc(Nc3ccnc(-c4ccccc4)c3)c12`, for which the IC50 in data set [5] was 631 nM.
For `Cc1ccc(F)c(-c2cc(Nc3ccnc4cnn(CCO)c34)c(C)cn2)n1`, in [1], the EC50 is 20 nM. Besides, the IC50 in data set [5] is 12.6 nM.
With `Cc1cnc(-c2cc(F)ccc2F)cc1Nc1ccnc2cn(CC(C)O)nc12` (centres undefined), the EC50 in data set [1] is 126 nM; in data set [4], 158 nM. Also, the hepatic extraction ratio in data set [2] is 0.79; in data set [3], 0.68.
`NC(=O)Cn1ncc2nccc(Nc3ccnc(-c4cc(F)ccc4F)c3)c21`: the values for the half-maximal effective concentration (EC50) in [1] and in [4] were 200 nM and 1260 nM, respectively. For the same compound, the hepatic extraction ratio is 0.53 in data set [2] and 0.57 in data set [3].
Turning to `Cc1ccc(F)c(-c2cc(Nc3ccnc4cn[nH]c34)ccn2)c1`, the IC50 in data set [5] is 15.8 nM.
As for `CNC(=O)n1ncc2nccc(Nc3cc(-c4cc(Cl)ccc4F)ncc3C)c21`, the EC50 in [1] was 31.6 nM. For the same compound, the figures for the hepatic extraction ratio in data set [2] and in data set [3] were 0.51 and 0.52, respectively. Further, the IC50 in data set [5] is 15.8 nM.
For `COc1cccc2nccc(Nc3cc(-c4cc(Cl)ccc4F)ncc3C3CC3)c12`, the IC50 in [5] was 50.1 nM.
With `Cc1ccc(F)c(-c2cc(Nc3ccnc4cn[nH]c34)c(C)cn2)n1`, the hepatic extraction ratio came out at 0.57 in data set [2] and 0.74 in data set [3]. Moreover, the figures for the IC50 in data set [10], in data set [5] and in [8] were 2510 nM, 2.51 nM and 6310 nM, respectively. Besides, in data set [4], the EC50 is 31.6 nM.
With `Fc1ccc(Cl)cc1-c1cc(Nc2ccnc3cn(CC4CCNCC4)nc23)ccn1`, the EC50 in [1] was 1000 nM. Moreover, the hepatic extraction ratio was determined as 0.36 in data set [2] and 0.16 in data set [3]. Moreover, the IC50 in data set [5] is 100 nM.
For `COc1cccc2nccc(Nc3ccnc(-c4cccc(Cl)c4)c3)c12`, in data set [5], the IC50 was 316 nM.
The same measure, in the same setting: under `COc1cccc2nccc(Nc3cc(-c4cc(C)ccc4F)ncc3C)c12` stands 12.6 nM; under `COc1cccc2nccc(Nc3ccnc(-c4nc(C)ccc4F)c3)c12`, 39.8 nM.
For `Fc1ccc(Cl)cc1-c1cc(Nc2ccnc3cnn(CC4CCNCC4)c23)ccn1`, the hepatic extraction ratio was 0.91 in data set [2] and 0.93 in data set [3].
For `CNC(=O)n1ncc2nccc(Nc3cc(-c4cc(F)ccc4F)ncc3C)c21`, the figures for the EC50 in data set [1] and in data set [4] were 25.1 nM and 20 nM, respectively. The figures for the hepatic extraction ratio in data set [2] and in [3] were less than 0.23 and 0.2, respectively.
The CLint scaled is the rate of metabolic loss divided by the concentration. For the compound `COc1cccc2nccc(Nc3cc(-c4cc(Cl)ccc4F)ncc3C)c12`, the CLint scaled was determined as 86 mL/min/kg in data set [11] and 302 mL/min/kg in data set [12]. Moreover, the inhibition at 10 µM in data set [6] turned out to be 94%. The IC50 in data set [5] was 12.6 nM.
Take `Cc1cnc(-c2cc(F)ccc2F)cc1Nc1ccnc2cn[nH]c12`: the EC50 in data set [1] was 7.94 nM; in [4] it was 31.6 nM. In addition, the hepatic extraction ratio in data set [2] amounted to 0.74; in data set [3], 0.84. The values for the IC50 in data set [10] and in data set [8] were 316 nM and 1580 nM, respectively.
